Earlier results as cited in US20110319467A1, “Absorption Enhancement of Statins and Omega Fatty Acids” (priority 2010, published 2011).

Conditions: single emulsifier

**Q.** Which HLB value does the source give for Polyoxyethylene sorbitan monooleate here?
**A.** about 15
